These results are taken from patent US5696239A (The Dow Chemical Company, priority 1995, dated 1997).

Counter-ions that a name gives are not always drawn. Like-named read-outs stand apart in the source and are kept apart here. Some results are limits rather than exact numbers.

Data set [1] can be described thus: In vivo biodistribution of chelates in rats (% dose in organs). The following applies: rat, 2 hours after i.v. injection.
Method: (§2) Also samarium was injected as samarium chloride in unchelated form.
(§3) These animals were placed in cages and fed water and food ad libitum. The animals were acclimated for at least five days before use. Prior to injection of complex, the animals were placed under a heat lamp (15 to 30 minutes) to dilate the tail vein. Then, the animal was placed in a restraining cage, the tail cleaned with an alcohol swipe, and the animal injected (50 to 200 μl) via the tail vein. After injection, the animal was placed in another cage for two hours after which time the animal was sacrificed by cervical dislocation. The animal was then dissected, the parts rinsed with deionized H2 O , patted dry, and weighed into a tared counting vial. Whatever size of injection was made, at least three standards of the same material were prepared and counted with the animal parts.
(§4) Complexes were prepared by mixing a solution of ligand and metal then adjusting the pH to 7-8. The amount of metal that was complexed to ligand was determined by cation exchange chromatography. Free metal was retained by the resin, metal in the form of a complex was not.
(§5) One-hundred μl of the complexes were injected into the tail vein of three Sprague Dawley rats. Two hours after injection, the rats were killed by cervical dislocation and samples of tissues were taken. The tissues were weighed and the amount of radiation in each tissue determined by measuring the number of counts using a NaI well counter and comparing them to standards. […] The amount in bone was 25 times the % dose in a femur. The examples below differ in the ligand, amount of ligand and amount of metal used. Non-radioactive metal was used to obtain the desired ligand to metal ratios and tracer radioactive metal was used to obtain the biodistribution.
Data set [2] in a line: Percent complex determination, samarium complexes (Sephadex C-25 cation exchange). The format is physicochemical. The following applies: for % Complex (10:1), Sm / % Complex, Sm: samarium; for % Complex (10:1), Sm: ligand/metal 10:1; for % Complex, Sm: ligand/metal ratio about 50:1 (** footnote). As to the method:
(§1) A disposable 10 ml plastic (Biorad) column was filled with 1 to 2 ml of water-swelled Sephadex™ C-25 cation exchange resin. The water was pressure eluted to the top of the resin. Fifteen μl of the complex (or more if counts were low) were added to the top of the resin. This was followed by 2 ml of 4:1 (V:V) isotonic saline:conc. ammonium hydroxide solution as an eluent which was allowed to drip into a counting tube. This was also pressure eluted to the top of the resin. An additional 2 ml of the eluent were added and the column pressure eluted to remove all liquid. The dried resin was then placed in a third counting tube and the three tubes counted on a NaI well counter using a Canberra multichannel analyzer linked to a computer. The percent complex was determined by dividing the number of counts in the two elutions by the total counts in the elutions plus the column, all times 100.
Percent complex determination was made in the same manner as for the yttrium complex.

A short description of data set [3]: Percent complex determination, yttrium complexes (Sephadex C-25 cation exchange). The class given is physicochemical. The following applies: for % Complex (10:1), Y: ligand/metal 10:1, pH 7.4. As for the experimental part:
Complexes were made by preparing a 0.0003M yttrium solution in water. (YCl3.6H2 O, 303.26 g/mole; Y(OAc)3, 12.1% H2 O). Radioactive YCl3 (Oakridge National Laboratories) was added to give the desired number of counts. Ten μl of ligand solution (at 0.03M) were added to 990 μl of the Y solution, giving a ligand-to-metal ratio of 1:1. (Ten times the amount of ligand solution was used for a 10:1 ligand to metal ratio.) The pH was then adjusted to 7.4 using microliter quantities of hydrochloric acid or sodium hydroxide. The solution was then tested for the amount of complexed yttrium using the cation exchange method given below.
as §1, with “100. By this method, uncomplexed yttrium was retained on the column.” for “100.”

For data set [4] the following is noted: rat, in vivo, 120 min; for % Injected Dose in Liver: iv.
Method: as §2, §3, §4, §5
The conditions of data set [5]: patients with metastatic bone lesions; cited from earlier work.
Data set [6] is described as follows: Inertness of samarium complex versus pH. The class given is physicochemical. The following applies: Sm. As for the experimental part: as §1, with “100. By this method, uncomplexed yttrium was retained on the column.” for “100.”
One portion was treated with 1-2 μl portions of 0.1N hydrochloric acid until the pH was lowered and the other portion was treated with 0.1N sodium hydroxide to bring the pH up. The complexes were allowed to set for 5-10 minutes at each pH change, then they were sampled to determine the percent complexation at that pH by the method described for Examples 16 through 33.
One portion was treated with 1-2 μl portions of 1.0N hydrochloric acid until the pH was lowered and the other portion was treated with 0.1N, 1.0N and 50 weight % sodium hydroxide to bring the pH up. The complexes were allowed to set for about 5 minutes at each pH change, then they were sampled to determine the percent complexation at that pH by the method described for Examples 16 through 33.

Data set [7] in a line: Complex study: percent yttrium complex after addition of excess metal (lability). The format is physicochemical. The following applies: metal/ligand molar ratio 500, one-half hour after metal addition. As to the method:
as §1, with “100. By this method, uncomplexed yttrium was retained on the column.” for “100.”
The 1:1 complex of yttrium with 1-(p-aminobenzyl)diethylenetriaminepentaacetic acid (ABDTPA), a well known bifunctional chelant used in the literature, and with the ligand of Example 2 (Now Ex. XVI) and Example 12 (now Ex. XVII) were prepared using the techniques described earlier. Several 100 microliter aliquots were then withdrawn into separate centrifuge tubes. Excess metal was added such that the total volume change is minimized and the time noted. One-half hour after metal addition, the percent complex was determined by the Sephadex™ C-25 method and this was compared to the original amount of complex. The percent complex versus added metal gives an indication as to the lability of the ligand-metal complex. Results are given below and are compared to the EDTA-yttrium complex.

Consider “2-[(2-[(2-[(2-{[BIS(CARBOXYMETHYL)]AMINO}ETHYL)(CARBOXYMETHYL)AMINO]ETHYL)(CARBOXYMETHYL)AMINO]ETHYL)(CARBOXYMETHYL)AMINO]-2-[5-ACETAMIDO-2-(CARBOXYMETHYLOXY)PHENYL]ETHANOIC ACID AND 2[(2-[(2-{[BIS(CARBOXYMETHYL)]AMINO}ETHYL)(CARBOXY-METHYL)AMINO]ETHYL)(2-{[BIS(CARBOXYMETHYL)]AMINO}-ETHYL)AMINO]-2-[5-ACETAMIDO-2-(CARBOXYMETHYLOXY)PHENYL]-ETHANOIC ACID [Example 9]”, for which, in data set [1] (Sm complex, ligand/metal 10:1), the “% Injected Dose in Liver” value came to 2.8%. The “% Complex (10:1), Sm” value in data set [2] was above 99%.
For `Nc1ccc(O)c(C(C(=O)O)N(CCN(CC(=O)O)CC(=O)O)CC(=O)O)c1` (centres unmarked) [Example 5, 2-[(2-{[BIS(CARBOXYMETHYL)]AMINO}ETHYL)(CARBOXYMETHYL)AMINO]-2-(5-AMINO-2- HYDROXYPHENYL)ETHANOIC ACID], in data set [3], the “% Complex (10:1), Y” value was determined as 99%. Further, the “% Injected Dose in Liver” value in data set [4] turned out to be 0.38%.
Consider `CC(=O)Nc1cc(CN(CCN(CC(=O)O)CC(=O)O)CC(=O)O)c(O)c(CN(CCN(CC(=O)O)CC(=O)O)CC(=O)O)c1` [Example 11], for which the “% Complex (10:1), Y” value in data set [3] worked out at 99%. Also, the “% Complex, Y” value in data set [3] (ligand/metal ratio about 1:1 (* footnote)) stood at 98%.
`Nc1ccc(OCC(=O)O)c(C(C(=O)O)N(CCN(CC(=O)O)CC(=O)O)CC(=O)O)c1` (centres unmarked) [Example 3, 2-[(2-{[BIS(CARBOXYMETHYL)]AMINO}ETHYL)(CARBOXYMETHYL)AMINO]-2-[5-AMINO-2- (CARBOXYMETHLOXY)PHENYL]ETHANOIC ACID, PENTA SODIUM SALT]: the “% Complex (10:1), Y” value in data set [3] was above 99%. Besides, the “% Injected Dose in Liver” value in data set [4] is 0.22%.
With `CC(=O)Nc1ccc(O)c(CN(CCN(CC(=O)O)Cc2cc(NC(C)=O)ccc2O)CC(=O)O)c1` [Example U, N,N'-DI(2-HYDROXY, 5-ACETAMIDOBENZYL)ETHYLENEDIAMINE-N,N'-DIACETIC ACID, reference compound], in data set [1] (Sm complex, comparative, ligand/metal ratio not stated), the “% Injected Dose in Liver” value turned out to be 12%.
Take `CC(=O)Nc1cc(CN(CCN(CC(=O)O)CC(=O)O)CC(=O)O)c(O)c(CN(CC(=O)O)CC(=O)O)c1` [Example 15, 2-({[BIS(CARBOXYMETHYL)]AMINO}METHYL)-6-{[({[BIS(CARBOXYMETHYL)]AMINO}ETHYL)(CARBOXYMETHYL)AMINO]METHYL}-4-(ACETAMIDO)PHENOL]: the “% Complex (10:1), Y” value in data set [3] is given as 99%. Further, the “% Injected Dose in Liver” value in data set [4] is 0.37%.
For `[89Sr]` [Strontium-89], in data set [5], the blood levels entry is given as “high blood levels” and the “lesion to normal bone ratios” value is “low lesion to normal bone ratios”.
With `Nc1ccc(OCC(=O)O)c(C(C(=O)O)N(CCN(CCN(CC(=O)O)CC(=O)O)CC(=O)O)CC(=O)O)c1` (centres unmarked) [Example 8, 2-[{2-[(2-{[BIS(CARBOXYMETHYL)]-AMINO}ETHYL)(CARBOXYMETHYL)AMINO]ETHYL}(CARBOXYMETHYL)AMINO]-2-[5-AMINO-2-(CARBOXYMETHYLOXY)PHENYL]ETHANOIC ACID], the “% Complexed” value in data set [6] (pH 1, about 5 minutes) is 91%; in data set [6] (pH 2, about 5 minutes) it was 88%; in data set [6] (pH 3, about 5 minutes) it was 92%; in data set [6] (pH 5, about 5 minutes) it was 96%; in data set [6] (pH 7, about 5 minutes), 96%; in data set [6] (pH 9, about 5 minutes) it was 99%. The “% Complexed” value in data set [6] (pH 12, about 5 minutes) came out at 98%; in data set [6] (pH 13, about 5 minutes), 99%. Moreover, the “percent complexation, Sm” value in data set [2] (as prepared, pH adjusted to about 7) was 96%. For the same compound, the “% Complex, Sm” value in data set [2] is listed as above 99%.
“2-[BIS(2-{[(BIS(CARBOXYMETHYL)]AMINO}ETHYL)AMINO]-2-[5-AMINO-2-(CARBOXYMETHYLOXY)PHENYL]ETHANOIC ACID AND 2-[{2-[(2-{[BIS(CARBOXYMETHYL)]AMINO}ETHYL)(CARBOXYMETHYL)AMINO]ETHYL}(CARBOXYMETHYL)AMINO]-2-[5-AMINO-2-(CARBOXYMETHYLOXY)-PHENYL]ETHANOIC ACID [Example 7]”: the “% Complexed” value was determined as 98% in data set [6] (pH 1, 5-10 minutes); 100% in data set [6] (pH 2, 5-10 minutes); 100% in data set [6] (pH 3, 5-10 minutes); 100% in data set [6] (pH 4, 5-10 minutes); 100% in data set [6] (pH 5, 5-10 minutes); 100% in data set [6] (pH 7, 5-10 minutes). The “% Complexed” value in data set [6] (pH 9, 5-10 minutes) was 100%; in data set [6] (pH 11, 5-10 minutes) it was 100%; in data set [6] (pH 13, 5-10 minutes), 100%. Also, the “percent Sm complexed” value in data set [2] (as prepared, pH adjusted to about 7.5) was 100%. For the same compound, in data set [2], the “% Complex, Sm” value is 96%.
For “2-[bis(2-{[(bis(carboxymethyl)]amino}ethyl)amino]-2-[5-acetamido-2-(carboxymethyloxy)phenyl]ethanoic acid and 2-[{2-[(2-{[bis(carboxymethyl)]amino}ethyl)(carboxymethyl)amino]ethyl}(carboxymethyl)amino]-2-[5-acetamido-2-(carboxymethyloxy)-phenyl]ethanoic acid [Example 6]”, the “% Injected Dose in Liver” value in data set [1] (Sm complex, ligand/metal 10:1) is reported as 0.38%. In data set [2], the “% Complex (10:1), Sm” value is reported as above 99%.
For `CC(=O)Nc1ccc(OCC(=O)O)c(C(C(=O)O)N(CCN(CC(=O)O)CC(=O)O)CC(=O)O)c1` (centres unmarked) [Example 2, 2-[(2-{[bis(carboxymethyl)]amino}ethyl)(carboxymethyl)amino]-2-[5-acetamido-2-(carboxymethyloxy)phenyl]ethanoic acid], in data set [3], the “% Complex (10:1), Y” value is on record as above 99%. In addition, the “% Injected Dose in Liver” value in data set [4] was 0.22%. In data set [2], the “% Complex (10:1), Sm” value was above 99%. In data set [7], the “% Complex” value is recorded as 75%.
Regarding `[Cl][Sm]([Cl])[Cl]` [SmCl3, samarium chloride, reference compound], the “% Injected Dose in Liver” value in data set [1] (samarium chloride in unchelated form) was determined as 39%.
For `Nc1ccc(O)c(C(NCCNC(C(=O)O)c2cc(N)ccc2O)C(=O)O)c1` (centres unmarked) [Example X, ethylenediaminedi(2-hydroxy-5-aminophenyl)acetic acid, reference compound], the “% Injected Dose in Liver” value in data set [4] came out at 24%.
As to `CC(=O)Nc1ccc(O)c(C(C(=O)O)N(CC#N)CCN(CC(=O)O)CC(=O)O)c1` (centres unmarked) [Example 4, 2-[(2-{[bis(carboxymethyl)]amino}ethyl)(cyanomethyl)amino]-2-(5-acetamido-2-hydroxyphenyl)ethanoic acid], in data set [3], the “% Complex (10:1), Y” value is above 99%. In addition, in data set [4], the “% Injected Dose in Liver” value is 1.4%.
Turning to `CC(=O)Nc1ccc(O)c(C(NCCN(CC(=O)O)CC(=O)O)C(=O)O)c1` (centres unmarked) [Example 1, 2-[(2-{[bis(carboxymethyl)]amino}ethyl)amino]-2-(5-acetamido-2-hydroxyphenyl)ethanoic acid], in data set [3], the “% Complex (10:1), Y” value is reported as 98%. In data set [4], the “% dose in the blood” value is 0.57%, the “% dose in the bone” value came to 56.1%, the “% dose in the muscle” value is reported as 0.78% and the “% dose in the spleen” value worked out at 0.03%. Moreover, the “% Injected Dose in Liver” value in data set [4] was 0.87%.
